Measured values: patent publication US8642559B2, “C-terminal domain truncation of mGluR1α by calpain and uses thereof” (priority 2006, dated 2014)
“Also recorded” adds a separate entry of the source.

Experiments:
Format in all cases: cell-based
cortical neurons = test: Glutamate toxicity in transfected GFP-expressing cortical neurons (EthD-1 staining); details: 25 μM glutamate 1 hour, 12 hours later
Description: In FIGS. 8a and b, cortical neurons were co-transfected with green fluorescent protein (GFP) and vector DNA, myc-mGluR1α or myc-mGluR1α936Δ, respectively. […] Twelve hours later, neurons were stained with EthD-1 to label dead cells. Arrowheads in FIG. 8a indicate EthD-1 positive GFP-expressing neurons. * p<0.05. FIGS. 8c and d are representative photos and bar graphs showing differential roles of endogenous mGluR1 in neuronal toxicity before and after NMDA-induced truncation. Cortical neurons were treated as indicated and were stained with EthD-1 (for dead cells) and calcein AM (for live cells) 24 hours later. * p<0.001.
The downstream signaling pathways of mGluR1α, including release of intracellular calcium and activation of P13K-Akt, are both important for excitotoxicity. Therefore, we postulated that NMDA-induced truncation would alter the role of mGluR1α in neuronal toxicity. To test this possibility, we first co-transfected neurons with GFP and a control vector, wild-type mGluR1α or truncated mGluR1α respectively. […] Twelve hours after treatment, neurons were stained with 0.5 μM EthD-1 for 10 minutes to label dead cells. The numbers of GFP-expressing neurons and EthD-1 positive GFP-expressing neurons on each 18×18 mm coverslip were counted to calculate the percentage of dead cells. […] In neurons co-transfected with control vector, 35% (n=9, on average, there were 405 GFP-expressing neurons counted on each coverslip) of GFP-expressing neurons were positive for EthD-1 staining and therefore had died. In neurons co-transfected with wild-type mGluR1α, only 15% of neurons (n=8, in average, there were 428 GFP-expressing neurons counted on each coverslip) were EthD-1 positive, an effect that was statistically different from that in neurons co-transfected with control vector (p<0.01, Student's t-test). […] Therefore it was difficult to determine the exact location of cell bodies and the live/dead ratios in those neurons.

mGluR5 = mGluR5 levels in cortical neurons after glutamate (immunoblot); details: 100 μM glutamate, 60 min
Description: (§1) Total cell lysates were separated by SDS-PAGE and probed with an antibody against the carboxyl terminus (residue 1142-1160) of mGluR1α. […] Total cell lysates were probed with an anti-myc antibody. […] Total cell lysates were probed with antibodies against mGluR5, G1uR2/3 and VGluT1 respectively.

mGluR1α = test: Glutamate/NMDA-induced C-terminal truncation of mGluR1α in cultured cortical neurons (immunoblot); details: 100 μM glutamate
Description: as §1
Total cell lysate was collected immediately after treatment and subjected to SDS-PAGE and immunoblotting with an antibody against the carboxyl terminus (residues 1142-1160) of mGluR1α (FIG. 2A). […] Neurons were transfected with a calcium phosphate precipitation method modified for high transfection rate (Jian et al., Gene Ther 11:1301-1311, 2004).
Cortical neurons were treated with NMDA at the indicated concentrations for 1 h or treated with NMDA (10 μM) for the indicated times. Total cell lysates were separated by SDS-PAGE and probed with antibodies against mGluR1α1142-1160, Results were normalized over control values and are means±s.e.m. of 4 experiments.
To determine whether activation of mGluR1α itself was required for the truncation, two distinct mGluR1α antagonists were applied.
To further characterize NMDA-induced mGluR1α truncation, the concentration- and time-dependencies of the effects of NMDA were studied. Cortical neurons were first incubated with different concentrations of NMDA for a fixed period of time (1 hour) (FIG. 3F). […] In a following experiment, cortical neurons were incubated with 10 μM NMDA for different durations ranging from 1 to 60 min (FIG. 3G).
Cortical neurons were treated with NMDA (10 μM, 1 h). Total cell lysates were separated by SDS-PAGE and probed with antibodies against spectrin and mGluR1α1142-1160, respectively. Only the degradation bands of spectrin (spectrin DB, at ˜145 KD) are shown. […] In FIG. 4C, purified myc-mGluR1α was digested with μ-calpain at the indicated concentrations (U/ml) for 30 min. The digested material was processed for SDS-PAGE and subjected to silver staining or immunoblots with anti-myc or anti-mGluR1α1142-1160 antibodies. […] The 1st lane was the myc-mGluR1α immunoprecipitated from 293 cells; the 2nd and 3rd lanes were immunoprecipitated myc-mGluR1α digested with indicated concentration of calpain. […] FIG. 4F is the alignment of mGluR1 (902-941) and mGluR5 (889-927) surrounding the calpain cleavage site.
In this set of experiments, we determined which protease(s) mediated NMDA-induced truncation of mGluR1α. […] Cortical neurons were pretreated with a calpain inhibitor, the cell-permeable calpain-inhibitor III, or the caspase inhibitor cpm-VAD-CHO for 2 hours and then incubated in the absence or presence of 100 µM NMDA for 1 hour. […] To further confirm calpain activation by NMDA under our experimental conditions, we determined the levels of the calpain-specific spectrin degradation fragments.

[1] = test system: vesicular glutamate transporter (vGluT1); test: vGluT1 levels in cortical neurons after glutamate (immunoblot); details: 100 μM glutamate, 60 min
Description: as §1
To test for the specificity of glutamate-mediated truncation of mGluR1α, immunoblots were also probed with an antibody against mGluR5, another member of group I mGluRs, which shares a high similarity with mGluR1α.

With `N[C@@H](CCC(=O)O)C(=O)O` [glutamate] the “EthD-1 positive GFP-expressing neurons (dead cells)” value (cortical neurons; co-transfected with control vector) was 35%, the “EthD-1 positive GFP-expressing neurons (dead cells)” value (cortical neurons; co-transfected with mGluR1α936Δ) was 59% and the “EthD-1 positive GFP-expressing neurons (dead cells)” value (cortical neurons; co-transfected with wild-type mGluR1α) was 15%. For the same compound, the “levels of mGluR5” value (mGluR5) was “not significantly altered”, the “time at which mGluR1α truncation was apparent after glutamate treatment” value (mGluR1α) was 1 min and the “levels of native mGluR1α” value (mGluR1α; 60 min (1 hour)) was “almost completely disappeared; also recorded: significant reduction”. For the same compound, the “changes to vGluT1” value [1] was “no significant changes”.
